Measurements: patent US20230011869A1 (Hoffmann-La Roche Inc., priority 2018, published 2023)
Counter-ions that a name gives are not always drawn. Like-named read-outs stand apart in the source and are kept apart here.

Test system: Acinetobacter baumannii ATCC17978
Experiment: Antimicrobial susceptibility testing: 90% growth inhibitory concentration (IC90) determination, Iso-Sensitest broth
Assay type: cell-based
Summary of the method: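 A. baumannii ATCC17978 grown in Iso-Sensitest broth across 10 compound concentrations at 35±2 °C.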

[1] = 90% growth inhibitory concentration, Acinetobacter baumannii ATCC17978, Iso-Sensitest broth, OD 600 nm over 16 h, read-out: ATCC17978 IC90
[2] = Acinetobacter baumannii, ATCC17978, 16 h, read-out: ATCC17978 IC90, 90% growth inhibitory concentration, Acinetobacter baumannii ATCC17978, Iso-Sensitest broth, OD 600 nm over 16 h

Row | IC90 [1] [nM] | SMILES | IC90 [2] [nM]
1 | 330 | Cc1cc(Nc2nccn3c(-c4ccc(OCC#N)c(F)c4F)cnc23)ccc1C(=O)N1CCC(C(=O)N2CCNC[C@@H]2CO)CC1 [Example 497, 2-[2,3-difluoro-4-[8-[4-[4-[(2R)-2-(hydroxymethyl)piperazine-1-carbonyl]piperidine-1-carbonyl]-3-methylanilino]imidazo[1,2-a]pyrazin-3-yl]phenoxy]acetonitrile; for-mic acid] | 
2 |  | Cc1cc(Nc2nccn3c(-c4ccc(OCC#N)c(F)c4F)cnc23)ccc1C(=O)N1CCC(C(=O)OC[C@H]2CNCCN2)CC1 [Example 499, formic acid; [(2R)-piperazin-2-yl]methyl 1-[4-[[3-[4-(cyanomethoxy)-2,3-difluorophenyl]imidazo[1,2-a]pyrazin-8-yl]amino]-2-methylbenzoyl]piperidine-4-carboxylate] | 360
3 |  | Cc1cc(Nc2nccn3c(-c4ccc(OC(F)F)cc4)cnc23)ccc1C(=O)N1CCN(C(=O)N2CCNC(CN)C2)CC1 (stereo not shown) [Example 500, [4-[3-(aminomethyl)piperazine-1-carbonyl]piperazin-1-yl]-[4-[[3-[4-(difluoromethoxy)phenyl]imi-dazo[1,2-a]pyrazin-8-yl]amino]-2-methylphenyl]methanone; for-mic acid] | 390
4 |  | Cc1cc(Nc2nccn3c(-c4ccc(OC(F)F)cc4)cnc23)ccc1C(=O)N1CCN(C(=O)C2C=CNCC2)CC1 (stereo not shown) [Example 501, [4-[[3-[4-(difluoromethoxy)phenyl]imi-dazo[1,2-a]pyrazin-8-yl]amino]-2-methylphenyl]-[4-(1,2,3,4-tetrahydropyridine-4-carbonyl)piperazin-1-yl]methanone; hydrochloride] | 410
5 |  | Cc1cc(Nc2nccn3c(-c4ccc(OC(F)F)cc4)cnc23)ccc1C(=O)N1CCN(C(=O)C2CCNCC2F)CC1 (stereo not shown) [Example 502, [4-[[3-[4-(difluoromethoxy)phenyl]imi-dazo[1,2-a]pyrazin-8-yl]amino]-2-methylphenyl]-[4-(3-fluoropiperidine-4-carbonyl)piperazin-1-yl]methanone; hydrochloride] | 470
6 |  | Cc1cc(Nc2nccn3c(-c4ccc(OC(F)F)cc4)cnc23)ccc1C(=O)N1CCN(C(=O)[C@@H]2CCNC[C@H]2O)CC1 [Example 503, [4-[[3-[4-(difluoromethoxy)phenyl]imi-dazo[1,2-a]pyrazin-8-yl]amino]-2-methylphenyl]-[4-[(3S,4R)-3-hydroxypiperidine-4-carbonyl]piperazin-1-yl]methanone] | 470
7 | 490 | Cc1cc(Nc2nccn3c(-c4ccc(OCC#N)c(F)c4F)cnc23)ccc1C(=O)N1CCN(C(=O)C2CNC2)CC1 [Example 504, 2-[4-[8-[4-[4-(azetidine-3-carbonyl)piperazine-1-carbonyl]-3-methylanilino]imidazo[1,2-a]pyrazin-3-yl]-2,3-difluorophenoxy]acetonitrile; formic acid] | 
8 |  | Cc1cc(Nc2nccn3c(-c4ccc(OC(F)F)cc4)cnc23)ccc1C(=O)N1CCN(C(=O)N2CCNCC2CO)CC1 (stereo not shown) [Example 505, [4-[[3-[4-(difluoromethoxy)phenyl]imi-dazo[1,2-a]pyrazin-8-yl]amino]-2-methylphenyl]-[4-[2-(hydroxymethyl)piperazine-1-carbonyl]piperazin-1-yl]methanone] | 500
9 |  | Cc1cc(Nc2nccn3c(-c4ccc(OC(F)F)cc4)cnc23)ccc1C(=O)N1CCN(C(=O)C2(C)CCNCC2)CC1 [Example 506, [4-[[3-[4-(difluoromethoxy)phenyl]imi-dazo[1,2-a]pyrazin-8-yl]amino]-2-methylphenyl]-[4-(4-methylpiperidine-4-carbonyl)piperazin-1-yl]methanone; hydrochloride] | 510
10 |  | Cc1cc(Nc2nccn3c(-c4ccc(OC(F)F)cc4)cnc23)ccc1C(=O)N1CCN(C(=O)[C@H]2CCNC[C@@H]2O)CC1 [Example 507, [4-[[3-[4-(difluoromethoxy)phenyl]imi-dazo[1,2-a]pyrazin-8-yl]amino]-2-methylphenyl]-[4-[(3R,4S)-3-hydroxypiperidine-4-carbonyl]piperazin-1-yl]methanone] | 510
11 |  | Cc1cc(Nc2nccn3c(-c4ccc(OC(F)F)cc4)cnc23)ccc1C(=O)N1CCN(C(=O)[C@H]2CNCCN2)CC1 [Example 508, [4-[[3-[4-(difluoromethoxy)phenyl]imi-dazo[1,2-a]pyrazin-8-yl]amino]-2-methylphenyl]-[4-[(2R)-piperazine-2-carbonyl]piperazin-1-yl]methanone; hydrochloride] | 530
12 |  | Cc1cc(Nc2nccn3c(-c4ccc(OC(F)F)cc4)cnc23)ccc1C(=O)N1CCN(C(=O)C2(N)CCNCC2)CC1 [Example 509, [4-(4-aminopiperidine-4-carbonyl)piperazin-1-yl]-[4-[[3-[4-(difluoromethoxy)phenyl]imi-dazo[1,2-a]pyrazin-8-yl]amino]-2-methylphenyl]methanone; hy-drochloride] | 540
13 | 550 | CCc1cc(Nc2nccn3c(-c4ccc(OCC#N)c(F)c4F)cnc23)ccc1C(=O)N1CCN(C(=O)[C@@H]2C[C@@H](O)CN2)CC1 [Example 510, 2-[4-[8-[3-ethyl-4-[4-[(2S,4R)-4-hydroxypyrrolidine-2-carbonyl]piperazine-1-carbonyl]annilino]imidazo[1,2-a]pyrazin-3-yl]-2,3-difluorophenoxy]acetonitrile; formic acid] | 
14 |  | Cc1cc(Nc2nccn3c(-c4ccc(OC(F)F)cc4)cnc23)ccc1C(=O)N1CCN(C(=O)[C@H]2CCNC[C@H]2O)CC1 [Example 511, [4-[[3-[4-(difluoromethoxy)phenyl]imi-dazo[1,2-a]pyrazin-8-yl]amino]-2-methylphenyl]-[4-[(3S,4S)-3-hydroxypiperidine-4-carbonyl]piperazin-1-yl]methanone] | 560
15 |  | Cc1cc(Nc2nccn3c(-c4ccc(OC(F)F)cc4)cnc23)ccc1C(=O)N1CCN(C(=O)[C@H]2NCC[C@H]2O)CC1 [Example 512, [4-[[3-[4-(difluoromethoxy)phenyl]imi-dazo[1,2-a]pyrazin-8-yl]amino]-2-methylphenyl]-[4-[(2S,3R)-3-hydroxypyrrolidine-2-carbonyl]piperazin-1-yl]methanone; hydrochloride] | 570
16 |  | Cc1cc(Nc2nccn3c(-c4ccc(OC(F)F)cc4)cnc23)ccc1C(=O)N1CCN(C(=O)[C@@H](N)CCCN)CC1 [Example 513, (2S)-2,5-diamino-1-[4-[4-[[3-[4-(difluoromethoxy)phenyl]imi-dazo[1,2-a]pyrazin-8-yl]amino]-2-methylbenzoyl]piperazin-1-yl]pentan-1-one; hydrochloride] | 610
17 |  | COC(=O)C[C@H](N)C(=O)N1CCN(C(=O)c2ccc(Nc3nccn4c(-c5ccc(OC(F)F)cc5)cnc34)cc2C)CC1 [Example 514, methyl (3S)-3-amino-4-[4-[4-[[3-[4-(difluoromethoxy)phenyl]imi-dazo[1,2-a]pyrazin-8-yl]amino]-2-methylbenzoyl]piperazin-1-yl]-4-oxobutanoate; hydrochloride] | 630
18 |  | COc1ccc(-c2cnc3c(Nc4ccc(C(=O)N5CCN(C(=O)N6CCN[C@H](C(=O)O)C6)CC5)c(C)c4)nccn23)c(F)c1F [Example 515, (2S)-4-[4-[4-[[3-(2,3-difluoro-4-methoxyphenyl)imidazo[1,2-a]pyrazin-8-yl]amino]-2-methylbenzoyl]piperazine-1-carbonyl]piperazine-2-carboxylic acid; formic acid] | 650
19 |  | Cc1cc(Nc2nccn3c(-c4ccc(OC(F)F)cc4)cnc23)ccc1C(=O)N1CCN(C(=O)[C@@H]2CCNC[C@@H]2O)CC1 [Example 516, [4-[[3-[4-(difluoromethoxy)phenyl]imi-dazo[1,2-a]pyrazin-8-yl]amino]-2-methylphenyl]-[4-[(3R,4R)-3-hydroxypiperidine-4-carbonyl]piperazin-1-yl]methanone] | 650
20 |  | Cc1cc(Nc2nccn3c(-c4ccc(OC(F)F)cc4)cnc23)ccc1C(=O)N1CCN(C(=O)C2(C#N)CCNCC2)CC1 [Example 517, 4-[4-[4-[[3-[4-(difluoromethoxy)phenyl]imi-dazo[1,2-a]pyrazin-8-yl]amino]-2-methylbenzoyl]piperazine-1-carbonyl]piperidine-4-carbonitrile; hydrochloride] | 660
21 |  | Cc1cc(Nc2nccn3c(-c4ccc(OC(F)F)cc4)cnc23)ccc1C(=O)N1CCN(C(=O)N2CCNCC2)CC1 [Example 518, [4-[[3-[4-(difluoromethoxy)phenyl]imi-dazo[1,2-a]pyrazin-8-yl]amino]-2-methylphenyl]-[4-(piperazine-1-carbonyl)piperazin-1-yl]methanone; hydrochloride] | 170
22 |  | Cc1cc(Nc2nccn3c(-c4ccc(OC(F)F)cc4)cnc23)ccc1C(=O)N1CCN(C(=O)CCN)CC1 [Example 519, 3-amino-1-[4-[4-[[3-[4-(difluoromethoxy)phenyl]imi-dazo[1,2-a]pyrazin-8-yl]amino]-2-methylbenzoyl]piperazin-1-yl]propan-1-one; hydrochloride] | 410
23 |  | Cc1cc(Nc2nccn3c(-c4ccc(OC(F)F)cc4)cnc23)ccc1C(=O)N1CCN(C(=O)NCCN(C)C)CC1 [Example 520, 4-[4-[[3-[4-(difluoromethoxy)phenyl]imi-dazo[1,2-a]pyrazin-8-yl]amino]-2-methylbenzoyl]-N-[2-(dimethylamino)ethyl]pipera-zine-1-carboxamide] | 310
24 |  | Cc1cc(Nc2nccn3c(-c4ccc(OC(F)F)cc4)cnc23)ccc1C(=O)N1CCN(C(=O)[C@H]2CCN2)CC1 [Example 521, [4-[(2R)-azetidine-2-carbonyl]piperazin-1-yl]-[4-[[3-[4-(difluoromethoxy)phenyl]imi-dazo[1,2-a]pyrazin-8-yl]amino]-2-methylphenyl]methanone; hy-drochloride] | 370
25 | 370 | COc1ccc(-c2cnc3c(Nc4ccc(C(=O)N5CCN(C(=O)[C@H]6CCN6)CC5)c(C)c4)nccn23)cc1F [Example 522, [4-[(2R)-azetidine-2-carbonyl]piperazin-1-yl]-[4-[[3-(3-fluoro-4-methoxyphenyl)imidazo[1,2-a]pyrazin-8-yl]amino]-2-methylphenyl]methanone; hy-drochloride] | 
